{
  "source": "patent US7396842B2",
  "about": "“Five-membered cyclic compounds” (Dianippon Sumitomo Pharma Co., Ltd., priority 2002, dated 2008)",
  "data": [
    {"biological_target": "T1, SMBS on rat lung membranes (Rattus norvegicus, UniProt A0A8I6A822)", "T1 construct": "from tissue; host or cells: rat lung membranes (SD male rats)", "T1 sequence (A0A8I6A822 27-587)": "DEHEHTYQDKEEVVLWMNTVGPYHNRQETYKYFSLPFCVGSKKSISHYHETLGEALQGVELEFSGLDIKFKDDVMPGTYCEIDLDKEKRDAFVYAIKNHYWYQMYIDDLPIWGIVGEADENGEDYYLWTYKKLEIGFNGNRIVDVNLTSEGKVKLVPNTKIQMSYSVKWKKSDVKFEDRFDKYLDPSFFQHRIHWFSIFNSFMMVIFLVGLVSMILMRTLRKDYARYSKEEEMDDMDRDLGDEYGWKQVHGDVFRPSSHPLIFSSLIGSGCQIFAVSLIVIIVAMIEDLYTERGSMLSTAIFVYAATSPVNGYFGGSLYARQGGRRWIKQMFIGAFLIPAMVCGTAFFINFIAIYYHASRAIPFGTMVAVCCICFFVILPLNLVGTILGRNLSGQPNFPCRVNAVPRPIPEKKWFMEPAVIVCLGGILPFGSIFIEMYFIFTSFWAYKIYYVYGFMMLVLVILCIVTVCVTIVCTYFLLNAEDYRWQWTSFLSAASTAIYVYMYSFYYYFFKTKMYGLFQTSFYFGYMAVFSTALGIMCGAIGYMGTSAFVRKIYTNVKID", "experiment": "Receptor binding of the compound in rat lung membranes ([125I]-iodo-cyanopindolol ligand binding assay; Experiments 1 and 4)", "settings": "Table 37; compound concentration 30 μM; [125I]-iodo-cyanopindolol, rat lung membranes; Experiment 1; read-out: Binding Activity (30 μM)", "method": "(§1) Evaluation Test on Receptor Binding of the Compound in Rat Lung Membranes:\n(§2) This experiment was carried out according to the method disclosed in Sugasawa et al., (Sugasawa, T. et al., J. Biol. Chem., 272, 21244-21252(1997)).\n(§3) Preparation of Rat Lung Membranes\n(§4) The air tube and blood vessels were removed from the lung excised from SD male rats (7-weeks old when used, purchased from Charles River Japan, Inc.), and the lung was chopped, and washed with ice-cold tris-saline buffer (10 mM Tris-HCl, 154 mM sodium chloride, pH 7.4). The lung was homogenized by PHYSCOTRON (maximum speed: 1 minute) in a buffer for homogenization (tris-saline buffer containing 1 mM ethylenediaminetetraacetate (EDTA), 1 mM 4-(2-aminoethyl)-benzenesulfonyl fluoride (AEBSF), 5 μg/ml aprotinin, 5 μg/ml leupeptin) under ice-cooling. The mixture was centrifuged at a low speed (1500×g, 20 minutes, 4° C.), and the supernatant was super-centrifuged (100000×g, 20 minutes, 4° C.). The pellets thus obtained were suspended in tris-saline buffer, and kept at −80° C. The concentration of protein was measured by a Protein Assay Kit manufactured by Bio-Rad using bovine serum albumin (BSA) as standard.\n(§5) To each well of a protein-non-adsorbent round-bottom 96-well assay plate (purchased from IWAKI GLASS CO., LTD.) was added tris-saline buffer (200 μl) containing 1 nM [^125I]-iodo-cyanopindolol (purchased from Amarsham), 10 μM serotonin, 20 μM dl-propranol, 10 μM phentoramine, 1.1 mM ascorbic acid and 100 μg lung membranes, and the mixture was mixed well by pipetting, and the plate was incubated at 37° C. for 30 minutes. Test compounds were dissolved in 100% dimethylsulfoxide, and added to the plate in an amount of 2 μl (final concentration of DMSO: 1%). In order to obtain non-specific binding, L-threo-3-(3,4-dihydroxyphenyl)-N-[3-(4-fluorophenyl)propyl]-serinepyrrolidinamide was added at a final concentration of 100 μM instead of test compound. During this period, 0.3% polyethyleneimine (PEI)/tris-saline buffer (100 μl) was added to a multiscreen plate (96-well B-glassfiber, milipore Cat. No. MAFB NOB10) and the plate was incubated for more than 30 minutes. The plate was washed by vacuum filtration (by adding ice-cold tris-saline buffer (200 μl) and then vacuum filtration), and the reaction solution on the 96-well assay plate was washed by vacuum filtration onto the multiscreen plate for four times. The B-glassfiber paper filter at the bottom of the multiscreen plate was punched out, and the γ-ray amount of [^125I]-iodo-cyanopindolol being trapped onto the paper filter was measured as binding amount. The binding amount in the presence of DMSO (final concentration: 1%) was regarded as total binding, and the binding in the presence of L-threo-3-(3,4-dihydroxyphenyl) -N-[3-(4-fluorophenyl)-propyl]serinepyrrolidinamide was regarded as non-specific binding. The value which is calculated by subtracting non-specific binding from total binding is specific binding. The binding activity of the compound can be calculated by the following equation, and expressed in a ratio of inhibiting the specific binding of [^125I]-iodo-cyanopindorol to SMBS on rat lung membranes.\n(§6) In the same manner to in Experiment 1, the receptor binding assay was carried out on the present compounds by using the rat lung membranes.", "units": {"inhibition at 30 µM": "%"}, "values": [
      {"smiles": "COc1ccc(-c2csc(=Nc3ccccc3)n2CCCN)cc1", "note": "[Example 9, N-[3-(3-Aminopropyl)-4-(4-methoxyphenyl)-thiazol-2(3H) -ylidene]aniline]", "inhibition at 30 µM": 79},
      {"smiles": "NCCCn1c(-c2ccc(-c3ccccc3)cc2)csc1=Nc1ccccc1", "note": "[Example 11, N-[3-(3-Aminopropyl)-4-(1,1′-biphenyl-4-yl)thiazol-2(3H)-ylidene]aniline]", "inhibition at 30 µM": 98.1}
    ]},
    {"biological_target": "T1, SMBS on rat lung membranes", "experiment": "Receptor binding of the compound in rat lung membranes ([125I]-iodo-cyanopindolol ligand binding assay; Experiments 1 and 4)", "settings": "Table 39; compound concentration 30 μM; [125I]-iodo-cyanopindolol, rat lung membranes; Experiment 1; read-out: Binding Activity (30 μM)", "method": "as §1, §2, §3, §4, §5, §6", "units": {"inhibition at 30 µM": "%"}, "values": [
      {"smiles": "CNCCCn1c(-c2ccc(OC)cc2)csc1=Nc1ccccc1", "note": "[Example 152, N-{4-(4-Methoxyphenyl)-3-[3-(methylamino)propyl]thiazol-2(3H)-ylidene}aniline]", "inhibition at 30 µM": 76.5},
      {"smiles": "CC(=O)NCCCn1c(-c2ccc(Br)cc2)csc1=Nc1ccccc1", "note": "[Example 153, N-{3-[4-(4-Bromophenyl)-2-phenyliminothiazol-3(2H)-yl]propyl}-acetamide]", "inhibition at 30 µM": 89.7},
      {"smiles": "O=C(CO)NCCCn1c(-c2ccc(Br)cc2)csc1=Nc1ccccc1", "note": "[Example 169, N-{3-[4-(4-Bromophenyl)-2-(phenylimino)-thiazol-3(2H)-yl]propyl}-2-hydroxyacetamide]", "inhibition at 30 µM": 58.6},
      {"smiles": "COC(=O)NCCCn1c(-c2ccc(OC)cc2)csc1=Nc1ccccc1", "note": "[Example 176, Methyl 3-[4-(4-methoxyphenyl)-2-(phenylimino)thiazol-3(2H)-yl]propyl-carbamate]", "inhibition at 30 µM": 75.2},
      {"smiles": "NCCCn1c(-c2ccc(C(=O)O)cc2)csc1=Nc1ccccc1", "note": "[Example 185, 4-[3-(3-Aminopropyl)-2-(phenylimino)-2,3-dihydrothiazol-4-yl]-benzoic acid]", "inhibition at 30 µM": 13.9}
    ]},
    {"biological_target": "T1, SMBS on rat lung membranes", "experiment": "Receptor binding of the compound in rat lung membranes ([125I]-iodo-cyanopindolol ligand binding assay; Experiments 1 and 4)", "settings": "Table 42; concentration tested 30 μM; rat lung membranes; Experiment 4; read-out: Binding Activity (30 μM)", "method": "as §1, §2, §3, §4, §5, §6", "units": {"inhibition at 30 µM": "%"}, "values": [
      {"smiles": "CNC(=O)NCCn1c(-c2ccc(N3CCOCC3)cc2)csc1=Nc1ccc(F)cc1", "note": "[Example 214, N-Methyl-N′-{2-[2-[(4-fluorophenyl)imino]-4-[4-(morpholino)phenyl]-thiazol-3(2H)-yl]ethyl}urea]", "inhibition at 30 µM": 99},
      {"smiles": "CCOC(=O)CNCCCn1c(-c2ccc(F)cc2)csc1=Nc1ccc(Cl)cc1OC", "note": "[Example 215, Ethyl N-{3-[2-[(4-chloro-2-methoxyphenyl)imino]-4-(4-fluorophenyl)-thiazol-3(2H)-yl]propyl}glycinate]", "inhibition at 30 µM": 109},
      {"smiles": "CCOC(=O)CCNCCCn1c(-c2ccc(F)cc2)csc1=Nc1ccc(Cl)cc1OC", "note": "[Example 216, Ethyl N-{3-[2-[(4-chloro-2-methoxyphenylimino)]-4-(4-fluoro-phenyl)-thiazol-3 (2H)-yl]propyl}-β-alaninate]", "inhibition at 30 µM": 112},
      {"smiles": "CN(C)C(=O)NCCCn1c(-c2ccc(N3CCOCC3)cc2)csc1=Nc1ccc(F)cc1", "note": "[Example 220, N′-{3-[2-[(4-Fluorophenyl)imino]-4-[4-(morpholino)phenyl]thiazol-3(2H)-yl]propyl}-N,N-dimethylurea]", "inhibition at 30 µM": 101},
      {"smiles": "CCCCNC(=O)NCCCn1c(-c2ccc(N3CCOCC3)cc2)csc1=Nc1ccc(F)cc1", "note": "[Example 221, N-butyl-N′-{3-[2-[(4-fluorophenyl)imino]-4-[4-(morpholino)phenyl]-thiazol-3(2H)-yl]propyl}urea]", "inhibition at 30 µM": 79},
      {"smiles": "O=C(NCCCn1c(-c2ccc(N3CCOCC3)cc2)csc1=Nc1ccc(F)cc1)c1ccccc1", "note": "[Example 222, N-{3-[2-[(4-Fluorophenyl)imino]-4-[4-(morpholino)phenyl]thiazol-3(2H)-yl]propyl}benzamide]", "inhibition at 30 µM": 86},
      {"smiles": "CCOC(=O)CC(=O)NCCCn1c(-c2ccc(N3CCOCC3)cc2)cs/c1=N\\c1ccc(F)cc1", "note": "[Example 239]", "inhibition at 30 µM": 50},
      {"smiles": "CN(C)CC(=O)NCCCn1c(-c2ccc(N3CCOCC3)cc2)cs/c1=N\\c1ccc(F)cc1", "note": "[Example 245]", "inhibition at 30 µM": 96},
      {"smiles": "O=C(COc1ccccc1)NCCCn1c(-c2ccc(N3CCOCC3)cc2)cs/c1=N\\c1ccc(F)cc1", "note": "[Example 246]", "inhibition at 30 µM": 80},
      {"smiles": "CCOC(=O)NCCCn1c(-c2ccc(N3CCOCC3)cc2)cs/c1=N\\c1ccc(F)cc1", "note": "[Example 250]", "inhibition at 30 µM": 98},
      {"smiles": "CCS(=O)(=O)NCCCn1c(-c2ccc(N3CCOCC3)cc2)cs/c1=N\\c1ccc(F)cc1", "note": "[Example 251]", "inhibition at 30 µM": 61},
      {"smiles": "N=C(NCCCn1c(-c2ccc(N3CCOCC3)cc2)cs/c1=N\\c1ccc(F)cc1)N1CCCCC1", "note": "[Example 257]", "inhibition at 30 µM": 110},
      {"smiles": "CCNC(=O)NCCn1c(-c2ccc(N3CCOCC3)cc2)cs/c1=N\\c1ccc(F)cc1", "note": "[Example 280]", "inhibition at 30 µM": 99},
      {"smiles": "CCCCCCNC(=O)NCCCn1c(-c2ccc(N3CCOCC3)cc2)cs/c1=N\\c1ccc(F)cc1", "note": "[Example 284]", "inhibition at 30 µM": 77},
      {"smiles": "O=C(NCCCn1c(-c2ccc(N3CCOCC3)cc2)cs/c1=N\\c1ccc(F)cc1)NC1CCCCC1", "note": "[Example 285]", "inhibition at 30 µM": 35},
      {"smiles": "O=C(NCCCn1c(-c2ccc(N3CCOCC3)cc2)cs/c1=N\\c1ccc(F)cc1)Nc1ccc(F)cc1", "note": "[Example 288]", "inhibition at 30 µM": 34},
      {"smiles": "O=C(NCCCn1c(-c2ccc(N3CCOCC3)cc2)cs/c1=N\\c1ccc(F)cc1)NCc1ccccc1", "note": "[Example 290]", "inhibition at 30 µM": 98},
      {"smiles": "COc1ccc(NC(=O)NCCCn2c(-c3ccc(N4CCOCC4)cc3)cs/c2=N\\c2ccc(F)cc2)cc1", "note": "[Example 291]", "inhibition at 30 µM": 68},
      {"smiles": "CCNC(=O)NCCCCCn1c(-c2ccc(N3CCOCC3)cc2)cs/c1=N\\c1ccc(F)cc1", "note": "[Example 295]", "inhibition at 30 µM": 18},
      {"smiles": "CCNC(=O)NCCCn1c(-c2ccc(N3CCOCC3)cc2)cs/c1=N\\c1ncccn1", "note": "[Example 297]", "inhibition at 30 µM": 75},
      {"smiles": "CCNC(=O)NCCCn1c(-c2ccc(N3CCOCC3)cc2)cs/c1=N\\c1ccc(OC)cn1", "note": "[Example 298]", "inhibition at 30 µM": 101}
    ]},
    {"biological_target": "T1, SMBS on rat lung membranes", "experiment": "Receptor binding of the compound in rat lung membranes ([125I]-iodo-cyanopindolol ligand binding assay; Experiments 1 and 4)", "settings": "Table 43; concentration tested 30 μM; rat lung membranes; Experiment 4; read-out: Binding Activity (30 μM)", "method": "as §1, §2, §3, §4, §5, §6", "units": {"inhibition at 30 µM": "%"}, "values": [
      {"smiles": "CCNC(=O)NCCCn1c(-c2ccc(N3CCOCC3)cc2)cs/c1=N\\c1nccs1", "note": "[Example 299]", "inhibition at 30 µM": 93},
      {"smiles": "CCNC(=O)NCCCn1c(CN(C)Cc2ccc(Cl)cc2)cs/c1=N\\c1ccc(OC(F)(F)F)cc1", "note": "[Example 303]", "inhibition at 30 µM": 23},
      {"smiles": "CCNC(=O)NCCCn1c(COCc2ccccc2)cs/c1=N\\c1ccc(OC(F)(F)F)cc1", "note": "[Example 305]", "inhibition at 30 µM": 13},
      {"smiles": "CCNC(=O)NCCCn1c(COCc2ccccc2)cs/c1=N\\c1ccc(OC)cn1", "note": "[Example 307]", "inhibition at 30 µM": 48},
      {"smiles": "CN(C)C(=O)NCCCn1c(-c2ccc3c(c2)OCO3)cs/c1=N\\c1ccc(OC(F)(F)F)cc1", "note": "[Example 309]", "inhibition at 30 µM": 100},
      {"smiles": "CCNC(=S)NCCCn1c(-c2ccc(N3CCOCC3)cc2)cs/c1=N\\c1ccc(F)cc1", "note": "[Example 312]", "inhibition at 30 µM": 112},
      {"smiles": "COCCNCCCn1c(-c2ccc(F)cc2)cs/c1=N\\c1ccc(Cl)cc1OC", "note": "[Example 315]", "inhibition at 30 µM": 115},
      {"smiles": "COCCOCCNCCCn1c(-c2ccc(F)cc2)cs/c1=N\\c1ccc(Cl)cc1OC", "note": "[Example 316]", "inhibition at 30 µM": 102},
      {"smiles": "O=C(O)CNCCCn1c(-c2ccc(N3CCOCC3)cc2)csc1=Nc1ccc(F)cc1", "note": "[Example 329, N-{3-[2-[(4-Fluorophenyl)imino]-4-[4-(morpholino)phenyl]thiazol-3(2H)-yl]propyl}glycine]", "inhibition at 30 µM": 76},
      {"smiles": "CCNC(=O)CNCCCn1c(-c2ccc(N3CCOCC3)cc2)csc1=Nc1ccc(F)cc1", "note": "[Example 335, N^1-ethyl-N^2-{3-[2-[(4-fluorophenyl)imino]-4-[4-(morpholino)phenyl]-thiazol-3(2H)-yl]propyl}glycinamide]", "inhibition at 30 µM": 101},
      {"smiles": "CN(C)C(=O)CNCCCn1c(-c2ccc(N3CCOCC3)cc2)cs/c1=N\\c1ccc(F)cc1", "note": "[Example 342]", "inhibition at 30 µM": 56},
      {"smiles": "CCN(CC)C(=O)CNCCCn1c(-c2ccc(N3CCOCC3)cc2)cs/c1=N\\c1ccc(F)cc1", "note": "[Example 343]", "inhibition at 30 µM": 107},
      {"smiles": "O=C(CNCCCn1c(-c2ccc(N3CCOCC3)cc2)cs/c1=N\\c1ccc(F)cc1)NCCO", "note": "[Example 344]", "inhibition at 30 µM": 101},
      {"smiles": "CN(C)CCNC(=O)NCCCn1c(-c2ccc(N3CCOCC3)cc2)csc1=Nc1ccc(F)cc1", "note": "[Example 349, N-[2-(Dimethylamino)ethyl]-N′-{3-[2-[(4-fluorophenyl)imino]-4-[4-(morpholino)phenyl]thiazol-3(2H)-yl]propyl}urea]", "inhibition at 30 µM": 100}
    ]}
  ]
}
